In USRE42013E1, “Macrocyclic modulators of the ghrelin receptor” (Tranzyme Pharma Inc., priority 2003, dated 2010):
Where two headings read alike, the source gives them in different places.

Target: T1, human growth hormone secretagogue receptor (hGHS-R1a) (Homo sapiens, UniProt Q92847)
T1 construct: purchased PerkinElmer BioSignal #RBHGHSM, lot#1887; host or cells: HEK-293, stably transfected
Test: Competitive radioligand binding assay (ghrelin receptor), [125I]-ghrelin displacement
Experimental: The competitive binding assay at the human growth hormone secretagogue receptor (hGHS-R1a) was carried out analogously to assays described in the literature.
Multiscreen Harvest plates-GF/C (Millipore, #MAHFC1H60) • 4. […] Bottom seal (Millipore, #MATAH0P00) • 7. […] Binding Buffer: 25 mM Hepes (pH 7.4), 1 mM CaCl2, 5 mM MgCl2, 2.5 mM EDTA, 0.4% BSA Assay Volumes
Competition experiments were performed in a 300 μl filtration assay format. • 1. 220 μL of membranes diluted in binding buffer • 2. 40 μL of compound diluted in binding buffer • 3. […] Compound Handling
Compounds were provided frozen on dry ice at a stock concentration of 10 mM diluted in 100% DMSO and stored at −80° C. until the day of testing. On the test day, compounds were allowed to thaw at rt O/N and then diluted in assay buffer according to the desired test concentrations.
Plates were sealed with TopSeal-A, vortexed gently and incubated at rt for 30 min. The reaction was arrested by filtering samples through Multiscreen Harvest plates (pre-soaked in 0.5% polyethyleneimine) using a Tomtec Harvester, washed 9 times with 500 μL of cold 50 mM Tris-HCl (pH 7.4, 4° C.), and then plates were air-dried in a fumehood for 30 min. A bottom seal was applied to the plates prior to the addition of 25 μL of MicroScint-0 to each well. […] Results were expressed as counts per minute (cpm).
Data were analyzed by GraphPad Prism (GraphPad Software, San Diego, Calif.) using a variable slope non-linear regression analysis.
Compound structures for Tables 3A, 3B and 3D are presented with the various groups as defined for the general structure of formula I. For Tables 3B and 3D, in all entries, m, n and p are 0; X, Z1 and Z2 are each NH. For Table 3B, R1 is H for all entries. The tethers (T) are illustrated with the bonding to X and Z2 as indicated. The compounds themselves are shown for Table 3C.
• 1. […] Key Aspects of Method • 1. […] Results

[1] = binding activity at the human ghrelin receptor, [125I]-ghrelin displacement, hGHS-R1a/HEK-293 membranes, read-out: Ki
[2] = Table 4, binding at human ghrelin receptor, TFA salts unless otherwise noted, read-out: Ki
[3] = [125I]-ghrelin displacement, hGHS-R1a HEK-293 membranes, read-out: Binding Activity at the Human Ghrelin Receptor (Ki)
[4] = Table 3E, binding activity at the human ghrelin receptor, class symbols, read-out: Ki
[5] = Table 3B, binding at human ghrelin receptor, [125I]-ghrelin displacement, read-out: Ki

T1 sequence (Q92847 whole entry): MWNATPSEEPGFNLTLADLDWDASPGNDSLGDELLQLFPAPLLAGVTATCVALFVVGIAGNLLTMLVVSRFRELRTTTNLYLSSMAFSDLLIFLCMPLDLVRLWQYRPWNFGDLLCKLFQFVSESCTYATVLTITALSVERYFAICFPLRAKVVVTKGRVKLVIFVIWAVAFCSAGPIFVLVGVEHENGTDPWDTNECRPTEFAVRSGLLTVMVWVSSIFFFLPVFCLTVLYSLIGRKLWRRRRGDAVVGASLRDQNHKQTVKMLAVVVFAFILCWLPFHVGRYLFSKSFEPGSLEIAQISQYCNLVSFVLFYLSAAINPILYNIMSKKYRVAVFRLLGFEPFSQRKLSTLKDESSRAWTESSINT

SMILES | Ki [5] [nM] | also measured
CC(C)CC1NCCOc2ccccc2C=CCNC(=O)C(C(c2ccccc2)c2ccccc2)NC(=O)C2(CCCC2)NC1=O (stereo not shown) [compound 158] | – | Ki [1]: > 1000 nM
CC(C)CC1NCCOc2ccccc2C=CCNC(=O)C(Cc2cscn2)NC(=O)C2(CCCC2)NC1=O (stereo not shown) [compound 163] | – | Ki [1]: > 10000 nM
CC(C)CC1NCCOc2ccccc2C=CCNC(=O)C2(CCCC2)NC(=O)C2(CCCC2)NC1=O (stereo not shown) [compound 168] | – | Ki [1]: 100 to 10000 nM
CCC(C)C1NCCOc2ccccc2CCNC(=O)C(Cc2ccccc2)NC(=O)C(C)N(C)C1=O (stereo not shown) [compound 178] | – | Ki [2]: 100 to 1000 nM; Ki [1]: 100 to 10000 nM
CCC(C)C1NCCCc2ccccc2CCNC(=O)C(Cc2ccccc2)NC(=O)C(C)N(C)C1=O (stereo not shown) [compound 179] | – | Ki [1]: 100 to 10000 nM
CCC(C)C1NCCCCc2ccccc2CCNC(=O)C(Cc2ccccc2)NC(=O)C(C)N(C)C1=O (stereo not shown) [compound 180] | – | Ki [1]: 100 to 10000 nM
CCC(C)C1NCCCCC=CCNC(=O)C(Cc2ccccc2)NC(=O)C(C)N(C)C1=O (stereo not shown) [compound 181] | – | Ki [1]: > 10000 nM
CCC(C)C1NCCCCC=CCCNC(=O)C(Cc2ccccc2)NC(=O)C(C)N(C)C1=O (stereo not shown) [compound 183] | – | Ki [1]: > 10000 nM
CCC(C)C1NCCOCC=CCNC(=O)C(Cc2ccccc2)NC(=O)C(C)N(C)C1=O (stereo not shown) [compound 185] | – | Ki [1]: 100 to 10000 nM
CCC(C)C1NCCc2ccccc2C=CCNC(=O)C(Cc2ccccc2)NC(=O)C(C)N(C)C1=O (stereo not shown) [compound 187] | – | Ki [1]: 100 to 10000 nM
CCC(C)C1NCCc2ccccc2C=CCCNC(=O)C(Cc2ccccc2)NC(=O)C(C)N(C)C1=O (stereo not shown) [compound 188] | – | Ki [1]: > 1000 nM
CCC(C)C1NCCCc2ccccc2CCCNC(=O)C(Cc2ccccc2)NC(=O)C(C)N(C)C1=O (stereo not shown) [compound 190] | – | Ki [3]: 10 to 100 nM
CCC(C)C1NCCOc2ccc(C(=N)N)cc2CCCNC(=O)C(Cc2ccccc2)NC(=O)C(C)N(C)C1=O (stereo not shown) [compound 196] | – | Ki [3]: > 10000 nM
CC(C)C1NCCOc2ccccc2C=CCNC(=O)C(Cc2ccccc2)NC(=O)C2(CCCC2)NC1=O (stereo not shown) [compound 200] | – | Ki [3]: 10 to 100 nM
CCCC1C(=O)N(C)C(C)C(=O)NC(Cc2ccccc2)C(=O)NCCCc2ccccc2OCCN1C (stereo not shown) [compound 201] | – | Ki [3]: 100 to 10000 nM
CCCC1C(=O)N(C)C(C)C(=O)NC(Cc2ccccc2)C(=O)NCCCc2ccccc2OCCN1C(C)=O (stereo not shown) [compound 202] | – | Ki [3]: > 10000 nM
CC(=O)N1CCOc2ccccc2C=CCNC(=O)C(Cc2ccccc2)NC(=O)C2(CCCC2)NC(=O)C1CC(C)C (stereo not shown) [compound 204] | – | Ki [3]: > 10000 nM
CCC(C)C1NCCCc2c(c(=O)n(C)c(=O)n2C)CCCNC(=O)C(Cc2ccccc2)NC(=O)C(C)N(C)C1=O (stereo not shown) [compound 206] | – | Ki [3]: > 10000 nM
O=C1NC2(CCCC2)C(=O)NC(Cc2ccccc2)C(=O)NCC=Cc2ccccc2OCCNC1Cc1ccccn1 (stereo not shown) [compound 210] | – | Ki [3]: > 1000 nM

SMILES | Ki [5] [nM] | also measured
O=C1NC2(CCCC2)C(=O)NC(Cc2ccccc2)C(=O)NCC=Cc2ccccc2OCCNC1Cc1c[nH]cn1 (stereo not shown) [compound 219] | – | Ki [3]: 100 to 10000 nM
CC(C)C[C@@H]1NCCOc2ccccc2CCCNC(=O)[C@H](Cc2ccccc2)NC(=O)[C@@H]2CCCN2C1=O [compound 222] | – | Ki [4]: 1000 to 10000 nM
CC(C)C[C@@H]1NCCOc2ccccc2CCCNC(=O)[C@H](Cc2ccccc2)NC(=O)[C@H]2CCCN2C1=O [compound 223] | – | Ki [4]: 1000 to 10000 nM
O=C1NC2(CCCC2)C(=O)NC(Cc2cccc(Cl)c2)C(=O)NCC=Cc2ccccc2OCCNC1Cc1ccc(O)cc1 (stereo not shown) [compound 301] | < 100 | –
CC1C(=O)NC(Cc2ccc(F)cc2)C(=O)NCCC=CCOCCNC(C2CC2)C(=O)N1C (stereo not shown) [compound 307] | 100 to 10000 | –
CC1C(=O)NC(Cc2ccsc2)C(=O)NCCCc2ccccc2OCCNC(C2CC2)C(=O)N1C (stereo not shown) [compound 310] | < 100 | –
C[C@@H]1C(=O)N[C@H](Cc2ccc(O)c(C(C)(C)C)c2)C(=O)NCCCc2ccccc2OCCN[C@@H](C2CC2)C(=O)N1C [compound 311] | < 100 | –
COc1ccc(CC2NC(=O)C(C)N(C)C(=O)C(C3CC3)NCCOc3ccccc3CCCNC2=O)cc1OC (stereo not shown) [compound 323] | 100 to 10000 | –
CC1C(=O)NC(Cc2c[nH]c3ccccc23)C(=O)NCCCc2ccccc2OCCNC(C2CC2)C(=O)N1C (stereo not shown) [compound 324] | < 100 | –
CCC(C)C1NCCOc2ccccc2C=CCNC(=O)C(Cc2cccc(Br)c2)NC(=O)C2(CCCC2)NC1=O (stereo not shown) [compound 326] | < 100 | –
CCC(C)C1NCCOc2ccccc2C=CCNC(=O)C(Cc2cccc(C#N)c2)NC(=O)C2(CCCC2)NC1=O (stereo not shown) [compound 329] | < 100 | –
CCC(C)C1NCCOc2ccccc2C=CCNC(=O)C(Cc2ccsc2)NC(=O)C2(CCCC2)NC1=O (stereo not shown) [compound 333] | 100 to 10000 | –
COC(C)C1NCCOc2ccccc2CCCNC(=O)C(Cc2ccc(F)cc2)NC(=O)C(C)N(C)C1=O (stereo not shown) [compound 335] | < 100 | –
O=C1NC2(CCCC2)C(=O)NC(Cc2cccc(Cl)c2)C(=O)NCC=Cc2ccccc2OCCNC1Cc1ccsc1 (stereo not shown) [compound 341] | < 100 | –
N#Cc1ccccc1CC1NCCOc2ccccc2C=CCNC(=O)C(Cc2cccc(Cl)c2)NC(=O)C2(CCCC2)NC1=O (stereo not shown) [compound 342] | 100 to 10000 | –
COCC1NCCOc2ccccc2C=CCNC(=O)C(Cc2cccc(Cl)c2)NC(=O)C2(CCCC2)NC1=O (stereo not shown) [compound 344] | 100 to 10000 | –
CC1C(=O)NC(Cc2ccc(F)cc2)C(=O)NCCCc2cc(F)ccc2OCCNC(C2CC2)C(=O)N1C (stereo not shown) [compound 355] | < 100 | –
CC1C(=O)NC(Cc2ccc(F)cc2)C(=O)NCCCc2cc(C(F)(F)F)ccc2OCCNC(C2CC2)C(=O)N1C (stereo not shown) [compound 356] | 100 to 10000 | –

The next lines start with results.

Ki [5] [nM] | SMILES | also measured
100 to 10000 | CC1C(=O)NC(Cc2ccc(F)cc2)C(=O)NCCCc2ccc(NS(C)(=O)=O)cc2OCCNC(C2CC2)C(=O)N1C (stereo not shown) [compound 357] | –
100 to 10000 | CCC(C)C1NCCOc2ccccc2C(C)(C)CCNC(=O)C(Cc2cccc(Cl)c2)NC(=O)C2(CCCC2)NC1=O (stereo not shown) [compound 359] | –
100 to 10000 | CCC(C)C1NCCOCC=CCCNC(=O)C(Cc2cccc(Cl)c2)NC(=O)C2(CCCC2)NC1=O (stereo not shown) [compound 360] | –
100 to 10000 | CCC(C)C1NCCCc2ccccc2C=CCCNC(=O)C(Cc2cccc(Cl)c2)NC(=O)C2(CCCC2)NC1=O (stereo not shown) [compound 361] | –
100 to 10000 | CCC(C)C1NCc2ccccc2CCCCCNC(=O)C(Cc2cccc(Cl)c2)NC(=O)C2(CCCC2)NC1=O (stereo not shown) [compound 362] | –
100 to 10000 | CCC(C)C1NCCCCCCCCNC(=O)C(Cc2cccc(Cl)c2)NC(=O)C2(CCCC2)NC1=O (stereo not shown) [compound 363] | Ki [2]: 100 to 1000 nM
100 to 10000 | CCC(C)C1NCCCCCCNC(=O)C(Cc2cccc(Cl)c2)NC(=O)C2(CCCC2)NC1=O (stereo not shown) [compound 365] | –
100 to 10000 | CCC(C)C1NCCCCCCCNC(=O)C(Cc2cccc(Cl)c2)NC(=O)C2(CCCC2)NC1=O (stereo not shown) [compound 366] | –
100 to 10000 | CCC(C)C1NCCOCCCCCNC(=O)C(Cc2cccc(Cl)c2)NC(=O)C2(CCCC2)NC1=O (stereo not shown) [compound 370] | –
< 100 | CCC(C)C1NCCCc2ccccc2CCCCNC(=O)C(Cc2cccc(Cl)c2)NC(=O)C2(CCCC2)NC1=O (stereo not shown) [compound 371] | –
< 100 | CC1C(=O)NC(Cc2ccc(F)cc2)C(=O)NCCCc2cc(Cl)ccc2OCCNC(C2CC2)C(=O)N1C (stereo not shown) [compound 373] | –
100 to 10000 | CC1CCNC(=O)C(Cc2ccc(F)cc2)NC(=O)C(C)N(C)C(=O)C(C2CC2)NCCOc2ccccc21 (stereo not shown) [compound 375] | –
100 to 10000 | CC1CNC(=O)C(Cc2ccc(F)cc2)NC(=O)C(C)N(C)C(=O)C(C2CC2)NCCOc2ccccc2C1 (stereo not shown) [compound 376] | –
100 to 10000 | CC1C(=O)NC(Cc2ccc(F)cc2)C(=O)NCCOc2cccc(c2)OCCNC(C2CC2)C(=O)N1C (stereo not shown) [compound 377] | –
100 to 10000 | CC1C(=O)NC(Cc2ccc(F)cc2)C(=O)NCCC(C)(C)c2ccccc2OCCNC(C2CC2)C(=O)N1C (stereo not shown) [compound 378] | –
< 100 | CC1C(=O)NC(Cc2ccc(F)cc2)C(=O)NCC2CC2c2ccccc2OCCNC(C2CC2)C(=O)N1C (stereo not shown) [compound 379] | –
100 to 10000 | CCC(C)C1NCCOc2ccccc2C=CCNC(=O)C(Cc2cccc(Cl)c2)NC(=O)C2(CCCC2)NC1=O (stereo not shown) [compound 380] | –
< 100 | CCC(C)C1NCCOc2ccccc2C#CCNC(=O)C(Cc2cccc(Cl)c2)NC(=O)C2(CCCC2)NC1=O (stereo not shown) [compound 381] | –
100 to 10000 | CCC(C)C1NCCOc2cc(F)ccc2CCCNC(=O)C(Cc2cccc(Cl)c2)NC(=O)C2(CCCC2)NC1=O (stereo not shown) [compound 383] | –
100 to 10000 | CCC(C)C1NCCOc2ccc(Cl)cc2CCCNC(=O)C(Cc2cccc(Cl)c2)NC(=O)C2(CCCC2)NC1=O (stereo not shown) [compound 384] | –
100 to 10000 | CCC(C)C1NCCOc2cccnc2CCCNC(=O)C(Cc2cccc(Cl)c2)NC(=O)C2(CCCC2)NC1=O (stereo not shown) [compound 385] | –
100 to 10000 | CCC(C)C1NCCOc2ccccc2C(C)CCNC(=O)C(Cc2cccc(Cl)c2)NC(=O)C2(CCCC2)NC1=O (stereo not shown) [compound 386] | –
